Reference: patent US8889638B2, “Stimulus-triggered prodrugs” (The Regents of the University of California, priority 2010, dated 2014)

Legend:
[1] = Cleavage of boronic ester/acid protected compounds by H2O2 (UV-Vis, rate constant, HPLC); type: physicochemical; details: for k, pseudo first-order rate constants calculated with an excess of H2O2: 50 μM in HEPES buffer pH 7.5, room temperature
Experimental: (§1) Absorption spectra of compounds B1-B16 were taken on a Perkin-Elmer Lambda 25 UV-visible spectrophotometer. To a 1.0 mL solution at 0.05 mM concentration in HEPES buffer (50 mM, pH 7.5) was added H2O2 (10 uL (0.09 M) in HEPES for compounds B1-B12 and B14-B16, 10 uL (0.9 M) in HEPES for compound B3, and 2.8 uL (0.09 M) in HEPES for compound B13). Spectra were monitored over time at room temperature. Absorption spectra of compounds B17-B21 were taken on a Perkin-Elmer Lambda 25 UV-visible spectrophotometer. To a 1.0 mL solution at 0.05 mM concentration of compounds 1-7 in HEPES buffer (50 mM, pH=7.5) was added H2O2 (10 uL, 0.09 M in HEPES) or KO2 (0.10 mM) with catalase (5 U). Hydrolytic stability was measured by monitoring samples of B19-B21 in HEPES buffer for a 24 h time period. Spectra were monitored over time at room temperature.
The pseudo-first order rate constant was calculated by monitoring the absorption spectra over time in the presence of excess hydrogen peroxide. To a 1.0 mL solution of compounds B1-B3 and B10-B14 in HEPES buffer (50 mM, pH 7.5) at 50 μM was added H2O2 to final concentrations of 150 μM, 250 μM, 500 μM, 750 μM, and 900 μM. Spectra were monitored over 15-30 min at room temperature with at least 50 spectra recorded. The change in absorption at 302 nm for B1-B3, 272 nm for B10, 312 nm for B11, 268 for B12, 306 nm for B13, and 303 nm for B14 were monitored. For compounds B1-B3 and B10-B11, the rate constant (kobs) was found from monitoring the appearance of the monitored absorption peak by plotting the linear slope of ln [(A∞−At)/(A∞)] vs. time (where A∞ is the absorbance of a 50 μM sample of the methyl salicylate for B1-B3, maltol for B10, and 1,2-HOPO for B11). For compounds B12-B14 the rate constant (kobs) was found from monitoring the disappearance of the monitored absorption peak by plotting the linear slope of ln [(A−AZBG)/(A0−AZBG)] vs. time (where AZBG is the absorbance of a 50 μM sample of the ZBG and A0 is the initial absorbance of […]).^3 The rate of conversion was determined from the slope of the line of kobs vs. [H2O2]. The pseudo-first order rate constant was calculated following literature procedure.^[15] To a 1.0 mL solution of compounds B19-B21 in HEPES buffer at 50 μM was added H2O2 to final concentrations of 150 μM, 250 μM, 500 μM, 750 μM, and 900 μM. Spectra were monitored over 15-30 min at room temperature with at least 50 spectra recorded. The change in absorption at 292 nm for B19 and 252 nm for B20 and B21 were monitored. The rate constant (kobs) was found from the linear slope of ln [(A−AZBG)/(A0−AZBG)] vs. time (where AZBG is the absorbance of a 50 μM sample of the ZBG and A0 is the initial absorbance of B19-B21). The rate of conversion was determined from the slope of the line of kobs vs. [H2O2].
Analytical HPLC was performed on a HP Series 1050 system equipped with a Vydac® C18 reverse phase column (218 TP, 250×4.6 mm, 5 μm). […] Starting with 95% A and 5% B, an […] gradient was run for 15 min to a final solvent mixture of 5% A and 95% B, which was held for 5 min before ramping back down to 95% A and 5% B in 2 min and holding for an additional 4 min. Compounds were prepared in HEPES buffer (50 mM, pH 7.5) at a concentration of 1 mM. Retention times of compounds were determined under identical HPLC conditions prior to and after reaction with H2O2. LC-MS(+) was performed on compounds B6, B15 and B16 to confirm cleavage of the boronic ester to the phenolic moiety.

[2] = target: T1, MMP-9 (catalytic domain, human, recombinant) (Homo sapiens, UniProt P14780); experiment: MMP-9 fluorescence-based inhibition assay with and without β-glucosidase; type: biochemical; details: for inhibition of MMP-9 when exposed to β-glucosidase: 1 mM for 2, 4 mM for 4, 125 μM for 6; for inhibition of MMP-9 in the absence of β-glucosidase: 1 mM for 2, 4 mM for 4, 125 μM for 6, 16 μM for 8
T1 construct: MMP-9 (catalytic domain, human, recombinant); purchased BIOMOL International
Experimental: MMP-9 (catalytic domain, human, recombinant), MMP-8 (catalytic domain, human, recombinant), and the assay kit were purchased from BIOMOL International. The assays were carried out according to the procedure provided with the kit. MMP activity was measured in 96-well plates using a Bio-Tek Flx 800 fluorescent plate reader. The ZBGs and their protected analogs were dissolved in DMSO and diluted in HEPES buffer (50 mM, pH 7.5) to a concentration of 10 mM for 1-2, 40 mM for 3-4, and 1.25 mM for 5-6. Each well contained 20 μL, of MMP-9 (0.45 U/mL), inhibitor (10 μL, of 1-6), 5 μL, of β-glucosidase (1 U/μL) when used, and buffer for a total volume of 99 μL. These were incubated for 1 h at 37° C. […] The reaction was initiated by the addition of 1 μL (400 μM) of the fluorescent substrate (Mca-Pro-Leu-Gly-Leu-Dpa-Ala-Arg-NH2 where Mca=(7-methoxycoumarin-4-yl)-acetyl and Dpa=N-3-(2,4-dinitrophenyl)-L-α-β-diaminopropionyl)) and kinetic activity was measured every minute for 30 min with excitation and emission wavelengths at 335 nm and 405 nm, respectively. Enzyme activity with inhibitor was calculated with respect to the control experiment (no inhibitor present). Measurements were performed in duplicate in two independent experiments.
For Cmpds 7 and 8, 1 mL sample in HEPES buffer at a concentration of 1 mM was incubated at 37° C. with 250 U of β-glucosidase (1 U/μL) for 4 h giving a final concentration of 0.8 mM of the inhibitor. After 4 h, a 200 μL aliquot was collected and filtered through a microcentrifuge filter. UV-Vis absorption spectroscopy was to verify that the concentration of 1,2-HOPO-2 was 0.71±0.2 mM in each of the samples using the extinction coefficient for 1,2-HOPO-2 (7) calculated at 346 nm (4,279.3±372 M-1 cm-1). Each well was made up with 20 μL of MMP-9 (0.45 U/mL), inhibitor (2 μL, for 7 and 8), and buffer for a total volume of 99 μL. These were incubated for 30 min at 37° C. For MMP-8 inhibition assays, each of the samples was diluted to 1 μM in HEPES buffer and 15 μL of each were added to 20 μL of MMP-8 (0.092 U/mL) and buffer for a total of 99 μL. The reaction was initiated by the addition of 1 μL (400 μM) of the fluorescent substrate and kinetic activity was measured every minute for 30 min with excitation and emission wavelengths at 335 nm and 405 nm, respectively. Enzyme activity with inhibitor was calculated with respect to the control experiment (no inhibitor present). A control sample was also performed, in which an aliquot of 250 U of β-glucosidase (1 U/μL) with 1 mL of HEPES buffer was incubated for 4 h at 37° C., filtered through a microcentrifuge filter, and evaluated in the MMP assay to confirm that no inhibition is observed with β-glucosidase. Measurements were performed in duplicate in two independent experiments. […]

[3] = Hydrolytic stability of boronic ester compounds in HEPES buffer; type: physicochemical; details: for hydrolytic stability in buffer: 4 h period
Experimental: as §1

[4] = Hydrolytic stability of sulfonate esters in HEPES buffer; type: physicochemical
Experimental: Absorption spectra of compounds were taken on a Perkin-Elmer Lambda 25 UV-Visible Spectrophotometer. To a 1.0 mL solution at 0.05 mM concentration of each compound in HEPES buffer (50 mM, pH 7.5) was added H2O2 (10 μL, 0.09M in HEPES) and absorption spectra were monitored over time at room temperature. Hydrolytic stability was measured by monitoring each sample in HEPES buffer over a 24 hour time period.

T1 sequence (P14780 107-444 limits assumed): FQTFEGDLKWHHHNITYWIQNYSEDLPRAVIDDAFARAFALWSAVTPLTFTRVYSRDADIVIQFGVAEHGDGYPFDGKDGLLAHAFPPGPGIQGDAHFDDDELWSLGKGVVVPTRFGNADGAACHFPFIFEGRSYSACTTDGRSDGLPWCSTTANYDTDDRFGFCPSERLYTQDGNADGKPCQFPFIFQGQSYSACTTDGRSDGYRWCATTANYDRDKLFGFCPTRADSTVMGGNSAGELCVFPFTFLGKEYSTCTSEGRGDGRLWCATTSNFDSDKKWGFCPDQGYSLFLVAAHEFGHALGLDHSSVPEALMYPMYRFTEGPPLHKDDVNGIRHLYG

CC1(C)OB(c2ccc(COc3cccc4cccnc34)cc2)OC1(C)C [Compound B14, 8-((4-(4,4,5,5-Tetramethyl-1,3,2-dioxaborolan-2-yl)benzyl)oxy)quinoline]
k, pseudo first-order rate constants calculated with an excess of H2O2 [1]: 4.1 ± 0.2 M⁻¹ s⁻¹

Cc1occc(=O)c1OC1OC(CO)C(O)C(O)C1O [Compound 4, 2-Methyl-4H-pyran-4-one-3-β-D-glucopyranoside]
inhibition of MMP-9 when exposed to β-glucosidase [2]: complete restoration of inhibition
inhibition of MMP-9 in the absence of β-glucosidase [2]: attenuated inhibition

COC(=O)c1ccccc1OCc1ccc(B2OC(C)(C)C(C)(C)O2)cc1 [Compound B1, Methyl 2-((4-(4,4,5,5-tetramethyl-1,3,2-dioxaborolan-2-yl)benzyl)oxy)benzoate]
k, pseudo first-order rate constants calculated with an excess of H2O2 [1]: 1.12 ± 0.04 M⁻¹ s⁻¹
hydrolytic stability in buffer [3]: stable

Cc1occc(=S)c1OC1OC(CO)C(O)C(O)C1O [Compound 6, 2-Methyl-4H-pyran-4-thione-3-β-D-glucopyranoside]
inhibition of MMP-9 when exposed to β-glucosidase [2]: complete restoration of inhibition
inhibition of MMP-9 in the absence of β-glucosidase [2]: attenuated inhibition

COC(=O)c1ccccc1B1OC(C)(C)C(C)(C)O1 [Compound B3, Methyl 2-(4,4,5,5-tetramethyl-1,3,2-dioxaborolan-2-yl)benzoate]
k, pseudo first-order rate constants calculated with an excess of H2O2 [1]: 0.031 ± 0.002 M⁻¹ s⁻¹
hydrolytic stability in buffer [3]: comparable to the ether linkage used in B1

Cc1c(OCc2ccc(B3OC(C)(C)C(C)(C)O3)cc2)c(=O)ccn1C [Compound B12, 1,2-Dimethyl-3-((4-(4,4,5,5-tetramethyl-1,3,2-dioxaborolan-2-yl)benzyl)oxy)pyridin-4(1H)-one]
k, pseudo first-order rate constants calculated with an excess of H2O2 [1]: 3.5 ± 0.3 M⁻¹ s⁻¹

CC1(C)OB(c2ccc(COc3cccccc3=O)cc2)OC1(C)C [Compound B13, 2-((4-(4,4,5,5-Tetramethyl-1,3,2-dioxaborolan-2-yl)benzyl)oxy)cyclohepta-2,4,6-trienone]
k, pseudo first-order rate constants calculated with an excess of H2O2 [1]: 2.9 ± 0.1 M⁻¹ s⁻¹

O=c1ccccn1OC1OC(CO)C(O)C(O)C1O [Compound 2, 1-Hydroxypyridin-2(1H)-one-β-D-glucopyranoside]
inhibition of MMP-9 when exposed to β-glucosidase [2]: complete restoration of inhibition
inhibition of MMP-9 in the absence of β-glucosidase [2]: attenuated inhibition

Cc1occc(=O)c1OC(=O)OCc1ccc(B2OC(C)C(C)(C)O2)cc1 (stereo not drawn) [Compound B21, 2-methyl-4-oxo-4H-pyran-3-yl 4-(4,4,5-trimethyl-1,3,2-dioxaborolan-2-yl)benzyl carbonate]
rate constant of conversion with an excess of H2O2 ([1]; pseudo-first order conditions, HEPES buffer): 6.7 M⁻¹ s⁻¹
hydrolysis in buffer ([3]; 24 h time period): > 50%

O=c1ccccn1OS(=O)(=O)c1ccc([N+](=O)[O-])cc1[N+](=O)[O-] [PZBG-1d, 2-Oxopyridin-1(2H)-yl 2,4-dinitrobenzenesulfonate]
stability in aqueous buffer in the absence of H2O2 [4]: rapid hydrolytic cleavage

COC(=O)c1ccccc1OC(=O)OCc1ccc(B2OC(C)(C)C(C)(C)O2)cc1 [Compound B2, Methyl 2-((((4-(4,4,5,5-tetramethyl-1,3,2-dioxaborolan-2-yl)benzyl)oxy)carbonyl)oxy)benzoate]
k, pseudo first-order rate constants calculated with an excess of H2O2 [1]: 2.7 ± 0.1 M⁻¹ s⁻¹
hydrolytic stability in buffer [3]: spontaneous hydrolytic cleavage
